Experimental data taken from patent US5821329A, “Cyclic peptide inhibitors of β1 and β2 integrin-mediated adhesion” (Tanabe Seiyaku Co., Ltd., priority 1996, dated 1998).

Key:
[1] = system: JY cell adhesion to TNF stimulated endothelial cells (β2 integrins); assay: JY-Endothelial Cell adhesion assay; assay type: cell-based, human; conditions: JY B cells + PMA on rTNF-stimulated HUVEC; no unit printed in the table (text gives IC50 and test concentrations in μM); read-out: IC50 for adhesion inhibition JY-EC
Method: The JY-Endothelial Cell Assay
The following assay established the activity of the present compounds in inhibiting cell adhesion through β2 integrins in a representative in vitro system.
The human B cell line, JY, was cultured in RPMI media containing 10% fetal calf serum at 37° C., in a humidified CO2 atmosphere. Endothelial cells were grown to confluency in 96-well micro-titer assay plates, as in the Jurkat-EC assay. Before the assay, the endothelial cells were stimulated with 50 U/ml rTNF for 18-24 hours at 37° C. JY cells were loaded with the fluorescent dye indicator BCECF-AM as follows: JY cells were washed twice with HBSS and cells were resuspended in HBSS at 5×10^6 cells/ml; BCECF-AM (Molecular Probes), stock concentration=1 mg/ml in DMSO, was added to the JY cells to a final concentration of 2 μg/ml; cells were incubated in the dark at 37° C. for 30-45 minutes; washed twice with HBSS and used in the assay. […]
The assay plates were then typically incubated for 30 min at 37° C. and washed four times with PBS containing Mg^2+ and Ca^2+ (room temp). 100 μl of PBS containing Mg^2+ and Ca^2+ were added to each well and the fluorescence from the adherent BCECF-labelled cells was analyzed using a fluorescence plate reader. […]

[2] = system: Jurkat cell adhesion to IL-1 stimulated endothelial cells (β1 integrins, α4 β1); assay: Jurkat-Endothelial Cell Adhesion Assay; assay type: cell-based, human; conditions: Jurkat T cells on IL-1 stimulated HUVEC; no unit printed in the table (text gives IC50 and test concentrations in μM); read-out: IC50 for adhesion inhibition Jurk-EC
Method: Jurkat-Endothelial Cell Adhesion Assay […] This assay measured the adhesive interactions of a T-cell line, Jurkat, known to express high levels of α4 β1, to endothelial cell monolayers in the presence of representative test compounds of the present invention. The test compounds were added in increasing concentrations to T-cells and then the T-cell/compound mixture was added to IL-1 stimulated endothelial cell monolayers. The plates were incubated, washed and the percentage of attached cells was quantitated. […] Human umbilical vein endothelial cells (HUVEC) were purchased from Clonetics (San Diego, Calif.) at passage number 2. The cells were grown on 0.5% porcine skin gelatin pre-coated flasks (Sigma, St. Louis, Mo.) in EGM-UV media (Clonetics, San Diego, Calif.) supplemented with 10% fetal bovine serum. Cells were re-fed every 2-3 days, reaching confluence by day 4 to 6. […] The endothelial cells were not used following passage 7. The T-cell line Jurkat was obtained from American Type Culture Collection and cultured in RPMI media containing 10% fetal calf serum. […] Following this incubation, the monolayers were washed twice with PBS containing 1 mM calcium chloride and 1 mM magnesium chloride and the plates were read using a Millipore Cytofluor 2300 (Marlboro, Mass.). […] Monolayers were also fixed in 3% paraformaldehyde and evaluated microscopically to verify the adhesion. […]

Row | IC50 [1] | IC50 [2] | Substance
1 | 353 µM | – | (9-FAc)-Arg-Cys*-(β-Asp)-(ThioP)-Cys*-(Abu)-Lys [Compound 65]
2 | – | 106 µM | (Ac)-Arg-Cys*-(β-Asp)-(ThioP)-Cys*-Ala-Asp-(OFm) [Compound 37]
3 | 52 µM | – | (Fmoc)-Arg-Cys*-(β-Asp)-(ThioP)-Cys* [Compound 22]
4 | – | 267 µM | (1-FCA)-Arg-Cys*-(β-Asp)-(ThioP)-Cys*-Ala-Ala-Asp-(OFm) [Compound 35]
